Assay results taken from EP4028002B1, “AN ANTICANCER COMBINATION OF CHIDAMIDE AND CELECOXIB” (Great Novel Therapeutics Biotech & Medicals Corporation, priority 2019, dated 2021).

Key:
[1] = Saturation solubility study in ddH2O; assay type: physicochemical; conditions: 25°C, 90 minutes; for Saturation & Solubility: 100 rpm, mean ± SD of triplicates, per batch; for saturation solubility (water solubility): independent batches
Method: Determination of Saturation Solubility of Chidamide-HCl, Chidamide-H2SO4, and Celecoxib-Na Salts. Sample of 5 mg of chidamide-HCl, chidamide-H2SO4, or celecoxib-Na salts was added to 5 ml volumetric flasks containing ddH2O and shook at 100 rpm in an incubator at 25°C for 90 minutes. The resulting suspension was filtered through a 0.22 µm filter. The concentrations of chidamide-HCl, chidamide-H2SO4, and celecoxib-Na salts were determined spectrophotometrically at 256 nm, 256 nm, and 253 nm, respectively. The saturation solubility of each sample was determined in triplicates and the mean value and standard deviation were reported. Preparation of standard curves is described as below.

[2] = low solubility and high permeability; cited from earlier work

Row | Compound | Saturation & Solubility [1] | saturation solubility (water solubility) [1] | BCS (biopharmaceutical classification system) class [2]
1 | Nc1cc(F)ccc1NC(=O)c1ccc(CNC(=O)/C=C/c2cccnc2)cc1 [Chidamide-API, 4-(((E)-3-(pyridin-3-yl)acrylamido)methyl)-N-(2-amino-4-fluorophenyl)benzamide] | BDL | water-insoluble | –
2 | Cc1ccc(-c2cc(C(F)(F)F)nn2-c2ccc(S(N)(=O)=O)cc2)cc1 [Celecoxib-API, 4-[5-(4-Methylphenyl)-3-(trifluoromethyl)pyrazol-1-yl]benzenesulfonamide] | BDL | water-insoluble | class II
